For experiment [1], the system named is right atrium preparation. Kind of experiment: Action on isolated cardiac muscle of guinea-pig: number of beats of right atrium preparation. The settings on record: for action on the heart relative to the action on the corpus cavernosum: EC30 heart compared with IC50 corpus cavernosum of Experimental example 2; for EC30 Heart rate: number of beats, 30% of isoproterenol maximum reaction. Here is the method: After sacrificing male Hartley guinea-pigs by venesection, the heart was isolated and transferred to Krebs-Henseleit solution was adequately aerated with a 95% O2/5% CO2. After promptly separating the heart into the atria and ventricles, a papillary muscle preparation from the right ventricle and a right atrium preparation were prepared. Each preparation was suspended from an FD pickup (TB-611T, Nihon Koden) at a resting tension of 0.5 g (about 5 mN) for the load in a nutrient solution consisting of organ bath maintained at 31°C. Automatic contraction of the right atrium amplified by a carrier amplifier (AP-600G, Nihon Koden) followed by recording tension and the number of beats on a recorded by means of an instantaneous heart rate counter (AT600G, Nihon Koden). For the papillary muscle, a rectangular wave electrical stimulus was applied by an electrical stimulator (SEN-3201, Nihon Koden) through bipolar platinum electrodes followed by amplification of the resulting tension by a carrier amplifier (AP-600G, Nihon Koden) and recording on a recorder. The right atrium preparations were equilibrated by replacing the nutrient solution twice every 20 minutes followed by confirmation of the reactivity of each preparation by observing the number of beats in the presence of 0.1 µmol/L of isoproterenol. After the number of beats had stabilized, the preparations were washed by replacing the nutrient solution and additionally equilibrated by replacing the nutrient solution twice every 20 minutes. Each drug was administered cumulatively followed by observing the reaction. Drug action was evaluated by determining the rate of change caused by the drug by taking the difference between the maximum reaction induced by isoproterenol and that before drug administration to be 100%, and then calculating the EC30 value as the concentration at which drug action was 30% with respect to the number of beats based on this rate of change.

In experiment [2] the test system is isolated corpus cavernosum of rabbit. The experiment can be described thus: Relaxation on norepinephrine-induced contraction in isolated corpus cavernosum of rabbit. Particulars: for attenuation of action by pre-treatment with L-NAME: L-NAME (1 mmol/L); for IC50: Oryctolagus cuniculus. The text has this: (§1) Rabbits were sacrificed by venesection following severing of the carotid artery under sodium pentobarbital anesthesia. The penis was immediately isolated and transferred into Krebs-Henseleit solution (composition (mmol/L): NaCl 118.4, KCl 4.7, CaCl2 2.5, MgSO4 1.2, KH2PO4 1.2, NaHCO3 25.0, glucose 11.1), which was adequately aerated with a 95% O2/5% CO2. After cutting away the connective tissue, the penis was severed longitudinally into two sections so that half of the urethra was present in each section by using an extension of the midline as the boundary. Each preparation was suspended from an FD pickup (TB-611T, Nihon Koden) at a resting tension of 0.5 g (about 5 mN) for the load in a nutrient solution consisting of 20 ml of organ bath maintained at 37°C. Contraction was recorded as the isometric contraction on a thermal pen writing recorder (WT-685G, Nihon Koden) following amplification by a carrier amplifier (AP-621G, Nihon Koden). After replacing the nutrient solution twice every 20 minutes and allowing to equilibrate, reactivity was confirmed for each preparation by observing the contraction to 1 µmol/L of norepinephrine. After contraction stabilized, the preparation was washed by replacing the nutrient solution, after which the solution was additionally replaced twice every 20 minutes and acceptable to equilibrate.
To begin with, each preparation was contracted by norepinephrine (final concentration: 1 µmol/L). The preparation for which stable tension was obtained at this time was used in the experiment. Each drug was administered cumulatively in 10-fold ratios followed by observation of the reaction. The maximum relaxation reaction was determined by application of papaverine hydrochloride (final concentration: 100 µmol/L).
The inhibition rate at each concentration was calculated by taking the tension during addition of norepinephrine to represent an inhibition rate of 0%, and the tension during the maximum relaxation reaction induced by addition of papaverine hydrochloride to represent an inhibition rate of 100%, followed by calculation of the concentration value at which the inhibition rate was 50% (IC50).

In experiment [3] the test system is papillary muscle preparation from the right ventricle. The experiment can be described thus: Action on isolated cardiac muscle of guinea-pig: force of contraction of papillary muscle preparation. The settings on record: 30% of isoproterenol maximum reaction. Here is the method:
After sacrificing male Hartley guinea-pigs by venesection, the heart was isolated and transferred to Krebs-Henseleit solution was adequately aerated with a 95% O2/5% CO2. After promptly separating the heart into the atria and ventricles, a papillary muscle preparation from the right ventricle and a right atrium preparation were prepared. Each preparation was suspended from an FD pickup (TB-611T, Nihon Koden) at a resting tension of 0.5 g (about 5 mN) for the load in a nutrient solution consisting of organ bath maintained at 31°C. Automatic contraction of the right atrium amplified by a carrier amplifier (AP-600G, Nihon Koden) followed by recording tension and the number of beats on a recorded by means of an instantaneous heart rate counter (AT600G, Nihon Koden). […] Drug action was evaluated by determining the rate of change caused by the drug by taking the difference between the maximum reaction induced by the second administration of isoproterenol and that before drug administration to be 100%, and then calculating the EC30 value as the concentration at which drug action was 30% with respect to force of contraction based on this rate of change.

Experiment [4] is described as follows: Activity on intracavernous pressure by intracavernous injection to anesthetized dogs. It is filed as in vivo. As for the experimental part:
Male beagle dogs having body weights of about 10 kg were anesthetized by intravenous administration of sodium pentobarbital at 35 mg/kg followed by immobilizing the animals in the dorsal position on a heating mat (SMS-2000J, Medical System Inc.) and inserting a. cannula into the trachea. A 23G winged needle for measuring internal pressure was inserted into the right corpus cavernosum, and intracavernous pressure was measured with a blood pressure measurement amplifier (AP-641G, Nihon Koden) by means of a pressure transducer (Statham P-50, Gould Co.). Moreover, a 23G winged needle for administration of drug was inserted into the right corpus cavernosum of the base followed by intracavernous injection of sodium nitroprusside (SNP, 10^-4 or 10^-3 mol/L, 0.5 ml) followed by administration of drug at the stage an increase in intracavernous pressure was confirmed. It should be noted that Compound A and milrinone were prepared with dimethyl sulfoxide-ethanol-physiological saline (1:2:30). […]
The activity of Compound A was assessed directly by administering at a volume of 0.5 ml starting from the lowest dose level at 0.243, 0.729, 2.43, 7.29, 24.3 and 72.9 µg/body (10^-6, 3 × 10^-6, 10^-5, 3 × 10^-5, 10^-4 and 3 × 10^-4 mol/L).
The effect of milrinone and zaprinast was assessed by concomitant administration of milrinone at 106 µg/body (10^-3 mol/L) and zaprinast at 136 µg/body (10^-3 mol/L) using a dosing volume of 0.5 ml each.
Intracavernous pressure was input into a polygraph (RM-6000, Nihon Koden), and together with continuously recording on a thermal pen recorder, was recorded and sampled on an external storage device (hard disk) of a computer (Macintosh Performa 5260, Apple) by means of a circulation kinetics analysis system (MP100WS, BIOPAC System) using circulation kinetics analysis software (MP/VAS 3 Ver. 1.0 beta 4.2, Physio-Tech Co., Ltd.). Maximum rate of change, duration and area under the curve (AUC) of intracavernous pressure were calculated using the circulation kinetics analysis software based on the resulting data. […]

For experiment [5], the system named is isolated thoracic aorta of rabbit. Kind of experiment: Relaxation on norepinephrine-induced contraction in isolated thoracic aorta of rabbit. Particulars: for IC50: Oryctolagus cuniculus.
From the text: as §1, with “equilibrate. To begin with, each preparation was contracted by norepinephrine (final concentration: 1 µmol/L). The preparation for which stable tension was obtained at this time was used in the experiment. Each drug was administered cumulatively in 10-fold ratios followed by observation of the reaction. The maximum relaxation reaction was determined by application of papaverine hydrochloride (final concentration: 100 µmol/L). The inhibition rate at each concentration was calculated by taking the tension during addition of norepinephrine to represent an inhibition rate of 0%, and the tension during the maximum relaxation reaction induced by addition of papaverine hydrochloride to represent an inhibition rate of 100%, followed by calculation of the concentration value at which the inhibition rate was 50% (IC50). The procedure was performed in the same manner as Experimental Example 2 with the exception of isolating the thoracic aorta and preparing in the form of a […] strip, and using 1 g (about 10 mN) of resting tension for the load.” for “equilibrate.”

Where [6] appears, read: direct relaxation, norepinephrine 1 µmol/L contraction.
The mark [7] stands for this setting: pre-treatment with L-NAME (1 mmol/L).
The mark [8] stands for this setting: intracavernous injection, Dunnett's test vs solvent group.

Structures can show the parent of a compound that is named as a salt.

Take `Cl.O=c1[nH]nc(OCCCc2ccc(Cl)cc2)c(NCc2cccnc2)c1Br` [Compound A, 4-bromo-6-[3-(4-chlorophenyl)propoxy]-5-(3-pyridylmethylamino)-3(2H)-pyridazinone hydrochloride]: the “action on the heart relative to the action on the corpus cavernosum” value in experiment [1] is listed as “less than 1/90”. Further, the “EC30 Heart rate” value in experiment [1] (hydrochloride) is reported as greater than 30 µmol/L. For the same compound, the “attenuation of action by pre-treatment with L-NAME” value in experiment [2] is “about one-half”. For the same compound, the IC50 – broadly, the concentration at which inhibition is half-maximal – in experiment [2] (setting [6]) came to 330 nM; in experiment [2] (setting [7]), 770 nM; in experiment [2] (pre-treatment with SNP (1 nmol/L)), 150 nM; in experiment [5] (aorta, pre-treatment with SNP (1 nmol/L)) it was 2710 nM; in experiment [5] (direct relaxation, norepinephrine 1 µmol/L contraction, aorta), 2650 nM. The “enhancement of action by pre-treatment with SNP” value in experiment [2] (SNP (1 nmol/L)) was “about two-fold”. In addition, the “EC30 Papillary muscle contraction force” value in experiment [3] (hydrochloride) is given as greater than 30 µmol/L. Moreover, the intracavernous pressure entry in experiment [4] (intracavernous injection 0.243 to 72.9 µg/body (10^-6 to 3 × 10^-4 mol/L), after SNP) is listed as “increased intracavernous pressure, nearly dose-dependently”. Besides, the “dose with significant effects on duration of intracavernous pressure” value in experiment [4] (setting [8]) was no less than 2.43 µg/body. For the same compound, in experiment [4] (setting [8]), the “dose with significant effects on maximum rate of change of intracavernous pressure” value is on record as no less than 2.43 µg/body. Further, the “action on the cavernous body relative to that on the aorta” value in experiment [5] (IC50 aorta compared with IC50 corpus cavernosum) is reported as “about 8 times”. Besides, in experiment [5] (aorta, cumulative administration), the relaxation action entry is recorded as “dose-dependent relaxation action”. For the same compound, in experiment [5] (aorta, SNP (1 nmol/L)), the “effect of pre-treatment with SNP on action” value was “completely unaffected”.

`O=c1[nH]nc(OCCC(O)c2ccc(Cl)cc2)c(NCc2cccnc2)c1Br` (stereo not drawn) [Compound B, 4-bromo-6-[3-(4-chlorophenyl)-3-hydroxypropoxy]-5-(3-pyridylmethylamino)-3(2H)-pyridazinone hydrochloride]: in experiment [2] (setting [6]), the IC50 was 1590 nM.

`Cc1[nH]c(=O)c(C#N)cc1-c1ccncc1` [Milrinone, milrinone, reference compound]: in experiment [1], the “action on the heart relative to the action on the corpus cavernosum” value is “about 1/2” and the “EC30 Heart rate” value turned out to be 11.7 µmol/L. Moreover, in experiment [2] (setting [6]), the IC50 worked out at 5800 nM. Also, in experiment [3], the “EC30 Papillary muscle contraction force” value amounted to 33.9 µmol/L.

In the case of `CCCOc1ccccc1-c1nc2nn[nH]c2c(=O)[nH]1` [Zaprinast, zaprinast, reference compound], in experiment [2], the “attenuation of action by pre-treatment with L-NAME” value is listed as 1/18. Moreover, the IC50 in experiment [2] (setting [6]) was 5500 nM; in experiment [2] (setting [7]), greater than 100000 nM.

The record behind these values is patent publication EP1157694A1, “REMEDIAL AGENT FOR ERECTILE DYSFUNCTION” (Nissan Chemical Industries, Ltd., priority 1998, dated 2000).
